Experimental data as given in patent EP4578857A1, “CRYPTOLEPINE SALT DERIVATIVE, AND PREPARATION METHOD THEREFOR AND USE THEREOF” (Nankai University, priority 2023, dated 2025).
Where two headings read alike, the source gives them in different places.

Legend:
Type in all cases: in vivo
[1] = tested on: tobacco Mosaic virus (TMV); assay: Anti-TMV activity: live protection function; settings: for TMV activity / antiTMV activity: 500µg/mL, Table 4 (all three modes); for TMV activity: compared with ribavirin; for inhibition at 500 µg/mL: Tobacco mosaic virus, read-out: Relative inhibition rate (%) Live protection function; for antiTMV activity: compared with commercial Ningnanmycin
Procedure: (§1) Determination of anti-tobacco Mosaic virus (TMV) activity by the following procedure:
(§2) The virus crude extract was centrifuged with polyethylene glycol at twice and refrigerated at 4°C for use. The absorbance of 260nm wavelength was determined by ultraviolet spectrophotometer, and the virus concentration was calculated according to the formula. Virus concentration(mg/ml) = (A260 × dilution ratio)(/E)^0.10 1cm^260nm . [formula]
(§3) After weighing, cryptolepine salt derivative, ningnanmycin and the original drug of ribavirin were dissolved in DMF to obtain 1×10^5µg/mL mother solution, and then diluted to the required concentration with 1‰ Tween 80 aqueous solution.
Select the 3-5 leaf stage of tobacco Xanthi nc with uniform growth, spray the whole plant, repeat each treatment 3 times, and set 1‰ Tween80 aqueous solution as control. 24h later, the leaf surface was coated with emery (500 mesh), the disease venom was dipped with a brush, and the whole leaf surface was gently rubbed twice along the direction of the branch pulse by using the brush, the leaf was supported by palm of hand, the virus concentration was 10µg/mL, and the leaf was washed by water after inoculation. After 3 days, the number of disease spots was recorded and the prevnetion and control effect was calculated.

[2] = tested on: tobacco Mosaic virus (TMV); assay: Anti-TMV activity: live treatment effect; settings: for inhibition at 500 µg/mL: Tobacco mosaic virus, 72 h, read-out: Relative inhibition rate (%) Live treatment effect
Procedure: as §1, §2, §3
Select the 3-5 leaf stage of tobacco Xanthi nc with uniform growth, use a brush to vaccinate the virus in the whole leaf, the virus concentration is 10µg/mL, and the leaf was washed with running water after inoculation. After the leaves were dried, the whole plant was sprayed with test sample, repeated 3 times every treatment, and 1‰ Tween 80 aqueous solution was set as control. After 3 days, the number of disease spots was recorded and the prevnetion and control effect was calculated.

[3] = tested on: tobacco Mosaic virus (TMV); assay: Anti-TMV activity: living passivation activity test; settings: for inhibition at 500 µg/mL: Tobacco mosaic virus, read-out: Relative inhibition rate (%) Living passivation activity test
Procedure: as §1, §2, §3
Select the 3-5 leaf stage of tobacco Xanthi nc with uniform growth, mix the test sample agent with the same volume of virus juice to passivate for 30min, friction inoculation, virus concentration 20µg/mL, the leaf was washed with running water after inoculation, repeat 3 times, set 1‰ Tween 80 aqueous solution as control. 3 days later, the number of disease spots was calculated. [formula]
Anti-tobacco Mosaic virus passivation activity test of all compounds was at a treatment dose of 500µg/mL. The positive control was the commercial anti-plant virus agent viriazole.

[4] = tested on: rice sheath blight strains; assay: Bactericidal activity test: resistance to rice sheath blight (live pot test); settings: for pest or weed control at 400 µg/mL: Oryza sativa, 144 h; for bactericidal activity against rice sheath blight: result in words
Procedure: Bactericidal activity test, the determination procedure is as follows: Test of resistance to rice sheath blight: Select uniformly growing rice seedlings and spray them on the leaves at the set concentration, set a water sprayring group as blank control, every treatment was repeated twice. After 24h, the rice seedlings were inoculated with rice sheath blight strains and placed at room temperature (25±4°C) for normal management after inoculation. The prevention and control effect was investigated by visual inspection 6 days after inoculation.

[5] = read-out: Resistance to rice sheath blight (%)/400mg/L
[6] = read-out: bactericidal activity against rice sheath blight
[7] = Treatment dose 500 mg/L, tobacco Xanthi nc sprayed 24h before inoculation, virus 10µg/mL, disease spots counted after 3 days
[8] = Treatment dose 500 mg/L, tobacco Xanthi nc inoculated (virus 10µg/mL), then sprayed, disease spots counted after 3 days
[9] = Treatment dose 500 mg/L, sample mixed with virus juice for 30min, then inoculated on tobacco Xanthi nc, virus 20µg/mL, 3 days
[10] = 400mg/L leaf spray on rice seedlings, inoculated after 24h, visual inspection 6 days after inoculation
[11] = 400mg/L leaf spray on rice seedlings, inoculated after 24h, visual inspection 6 days after inoculation, read-out: Resistance to rice sheath blight (%)/400mg/L
[12] = live pot test, summary of Table 5 (400mg/L)

SMILES | TMV activity [1] | inhibition at 500 µg/mL [1] | inhibition at 500 µg/mL [2] | inhibition at 500 µg/mL [3] | pest or weed control at 400 µg/mL [4, 5] | pest or weed control at 400 µg/mL [4, 11] | also measured
Cc1ccc(S(=O)(=O)n2c3ccccc3c3c2cc2ccccc2[n+]3CC2CCCCC2)cc1 [Example 19] | better TMV activity than the ribavirin | 47 ± 2.8% | 42.4 ± 4.9% | 44.2 ± 3.4% | 20% |  | 
Cc1ccc(S(=O)(=O)n2c3ccccc3c3c2cc2cc(C(F)(F)F)ccc2[n+]3C)cc1 [Example 14] |  | 15.3 ± 1.2% | 18.9 ± 1.2% | 20.1 ± 1.5% | 60% |  | pest or weed control at 400 µg/mL [4, 6]: > 50%
Cc1ccc(S(=O)(=O)n2c3ccc(Cl)cc3c3c2cc2ccccc2[n+]3C)cc1 [Example 5] | better TMV activity than the ribavirin | 46.7 ± 4.1% | 35.8 ± 4.8% | 39.3 ± 2.5% | 55 ± 5% |  | antiTMV activity [1]: comparable to that of commercial Ningnanmycin; pest or weed control at 400 µg/mL [4, 6]: > 50%
C[n+]1c2ccccc2c(NCCCN)c2[nH]c3ccccc3c21.[I-] [Example 33] | better TMV activity than the ribavirin |  |  |  |  |  | antiTMV activity [1]: comparable to that of commercial Ningnanmycin; Relative inhibition rate (%) Live protection function [1, 7]: 57.9±4.6%; Relative inhibition rate (%) Live treatment effect [2, 8]: 51.7±3.6%; Relative inhibition rate (%) Living passivation activity test [3, 9]: 49.8±3.1%; Resistance to rice sheath blight (%)/400mg/L [4, 10]: 40±0%
Cc1ccc(S(=O)(=O)n2c3ccc(I)cc3c3c2cc2ccccc2[n+]3C)cc1.[Cl-] [Example 7] | better TMV activity than the ribavirin |  |  |  |  |  | Relative inhibition rate (%) Live protection function [1, 7]: 44.5±0.4%; Relative inhibition rate (%) Live treatment effect [2, 8]: 43.0±3.5%; Relative inhibition rate (%) Living passivation activity test [3, 9]: 47.7±3.1%; Resistance to rice sheath blight (%)/400mg/L [4, 10]: 40±0%
Cc1ccc(S(=O)(=O)n2c3ccccc3c3c2cc2ccc(Cl)cc2[n+]3C)cc1 [Example 17] |  | 30.2 ± 1.7% | 23.5 ± 2.1% | 33.1 ± 1.1% | 40% |  | 
CCCCCCCCCCCCNc1c2ccccc2[n+](C)c2c1[nH]c1ccccc12 [Example 25] |  |  |  |  |  |  | Relative inhibition rate (%) Live protection function [1, 7]: 27.3±3.0%; Relative inhibition rate (%) Live treatment effect [2, 8]: 22.1±1.1%; Relative inhibition rate (%) Living passivation activity test [3, 9]: 35.1±0.1%; Resistance to rice sheath blight (%)/400mg/L [4, 10]: 20±0%
COC(=O)c1ccc2c(c1)cc1c(c3ccccc3n1S(=O)(=O)c1ccc(C)cc1)[n+]2C [Example 15] |  | 15.6 ± 0.4% | 22.1 ± 0.2% | 20 ± 1% | 40% |  | 
Cc1ccc(S(=O)(=O)n2c3ccc(Br)cc3c3c2cc2ccccc2[n+]3C)cc1 [Example 6] | better TMV activity than the ribavirin | 48.4 ± 4.7% | 45.2 ± 3.6% | 41 ± 2.2% | 40% |  | antiTMV activity [1]: comparable to that of commercial Ningnanmycin
Cc1ccc(S(=O)(=O)n2c3ccccc3c3c2cc2cc(Cl)ccc2[n+]3C)cc1 [Example 12] |  | 23.4 ± 3.3% | 19.1 ± 1% | 20.3 ± 2.1% | 40% |  | 
Cc1ccc(S(=O)(=O)n2c3ccc(F)cc3c3c2cc2ccccc2[n+]3C)cc1 [Example 4] |  | 21.6 ± 3.4% | 18.6 ± 1.2% | 14.1 ± 1.3% | 60% |  | pest or weed control at 400 µg/mL [4, 6]: > 50%
CN1CCC(Nc2c3ccccc3[n+](C)c3c2[nH]c2ccccc23)CC1 [Example 44] |  | 27.3 ± 4.4% | 33.1 ± 0.3% | 35.3 ± 2.1% |  | 55 ± 5% | pest or weed control at 400 µg/mL ([4]; live pot test, summary of Table 5 (400mg/L), read-out: bactericidal activity against rice sheath blight): > 50%
C[n+]1c2ccccc2c(N2CCN(CCN)CC2)c2[nH]c3ccc(Cl)cc3c21 [Reference Example 2, reference compound] |  | 15.2 ± 1.1% | 18.1 ± 0.2% | 15.3 ± 2.1% |  | 0% | bactericidal activity against rice sheath blight [4, 12]: no activity
Cc1ccc(S(=O)(=O)n2c3ccc(C)cc3c3c2cc2ccccc2[n+]3C)cc1 [Example 2] |  | 26.5 ± 3% | 20.5 ± 0.9% | 25.3 ± 2.3% | 40% |  | 
COc1ccc2c(c1)cc1c(c3ccccc3n1S(=O)(=O)c1ccc(C)cc1)[n+]2C [Example 10] |  | 17 ± 1% | 10.2 ± 0.7% | 19.1 ± 0.2% | 30% |  | 
Cn1c2c3cc(Br)ccc3nc-2cc2ccccc21 [Reference Example 1, 5-methyl-7-bromo 5H-indolo[3,2-b]quinoline, reference compound] |  |  |  |  |  | 0% | inhibition at 500 µg/mL [1, 7]: 15.1 ± 2%; inhibition at 500 µg/mL [2, 8]: 10.5 ± 3%; inhibition at 500 µg/mL [3, 9]: 10.2 ± 1.8%; bactericidal activity against rice sheath blight [4, 12]: no activity
C[n+]1c2ccccc2c(NCC2CCCNC2)c2[nH]c3ccccc3c21 (centres unmarked) [Example 43] |  | 26.1 ± 1% | 28.3 ± 0.2% | 30 ± 2.1% |  | 30% | 
Cc1ccc(S(=O)(=O)n2c3ccccc3c3c2cc2cc(C)ccc2[n+]3C)cc1 [Example 9] |  | 23.8 ± 3.5% | 19.1 ± 0.1% | 23.1 ± 0.9% | 70% |  | pest or weed control at 400 µg/mL [4, 6]: > 50%
C[n+]1c2ccccc2c(NC2CCNCC2)c2[nH]c3ccccc3c21 [Example 41] | better TMV activity than the ribavirin | 40.8 ± 4.7% | 34.1 ± 2.3% | 30.6 ± 4% |  | 40% | 
CCCCC(CC)CNc1c2ccccc2[n+](C)c2c1[nH]c1ccccc12 (centres unmarked) [Example 27] | better TMV activity than the ribavirin | 52.1 ± 2.8% | 46.3 ± 4.2% | 47.9 ± 1.5% |  | 30% | antiTMV activity [1]: comparable to that of commercial Ningnanmycin
